Test results as given in patent publication US9211310B2, “Use of a Chinese medicine composition in preparing medicaments for treating secondary prevention of myocardial infarction” (TASLY PHARMACEUTICAL GROUP CO., LTD, priority 2010, dated 2015).

Test system: patients after acute myocardial infarction
Experiment: TCM symptom score, total and single (chest pain, chest tightness, short breath, fatigue, palpitation, spontaneous perspiration, pale complexion), same clinical trial
Assay type: in vivo, human
Parameters: total score of TCM symptom, Mean / total score of TCM symptom, Min / total score of TCM symptom, Max / total score of TCM symptom, Md / change of total score of TCM symptom, Mean / change of total score of TCM symptom, Max / change of total score of TCM symptom, Md: scale not given here
Settings: PP
Source text: 3508 patients who were in accordance with the diagnostic standards of AMI for 28 days to 2 years and differentiated as Qi deficiency and blood stagnation syndrome by TCM were studied. 0.5 g Chinese medicine composition prepared by the method of EXAMPLE 1 (Coded as QSYQ) was administrated half an hour after meal, 3 times per day.
They included the overall survival time, angina pectoris score, TCM symptom score and life quality score, where angina pectoris score, TCM symptom score and life quality score were evaluated at randomization, in 1st, 3rd, 6th, 9th, 12th month after treatment and 18th month after follow-up.
The analysis method referred to the angina pectoris score.

[1] = 9 months after treatment-baseline
[2] = 12 months after treatment-baseline

CC(=O)Oc1ccccc1C(=O)O [Control group, aspirine]
change of spontaneous perspiration −2, percent of patients [1]: (0.43%) | change of spontaneous perspiration −3, number of patients [1]: 0 | change of spontaneous perspiration −3, percent of patients [1]: (0.00%) | change of total score of TCM symptom, Max [1]: 15.00 | change of total score of TCM symptom, Md [1]: −4.00 | change of total score of TCM symptom, Mean [1]: −5.04 | change of short breath 0, number of patients (12 months after treatment): 743 | distribution of total score of TCM symptom: Medium, number of patients (12 months after treatment): 229 | distribution of total score of TCM symptom: Medium, percentage of patients (12 months after treatment): (16.33%) | distribution of total score of TCM symptom: Mild, number of patients (12 months after treatment): 1172 | distribution of total score of TCM symptom: Mild, percentage of patients (12 months after treatment): (83.59%) | distribution of total score of TCM symptom: Severe, number of patients (12 months after treatment): 1 | distribution of total score of TCM symptom: Severe, percentage of patients (12 months after treatment): (0.07%) | fatigue score 0, % of patients (12 months after treatment): (39.06%) | fatigue score 0, number of patients (12 months after treatment): 548 | fatigue score 2, % of patients (12 months after treatment): (58.16%) | fatigue score 2, number of patients (12 months after treatment): 816 | fatigue score 4, % of patients (12 months after treatment): (2.64%) | fatigue score 4, number of patients (12 months after treatment): 37 | fatigue score 6, % of patients (12 months after treatment): (0.14%) | fatigue score 6, number of patients (12 months after treatment): 2 | pale complexion score 0, number of patients (12 months after treatment): 870 | pale complexion score 0, percent of patients (12 months after treatment): (62.01%) | pale complexion score 1, number of patients (12 months after treatment): 463 | pale complexion score 1, percent of patients (12 months after treatment): (33.00%) | pale complexion score 2, number of patients (12 months after treatment): 63 | pale complexion score 2, percent of patients (12 months after treatment): (4.49%) | pale complexion score 3, number of patients (12 months after treatment): 7 | pale complexion score 3, percent of patients (12 months after treatment): (0.50%) | palpitation score 0, number of patients (12 months after treatment): 576 | palpitation score 0, percent of patients (12 months after treatment): (41.05%) | palpitation score 2, number of patients (12 months after treatment): 745 | palpitation score 2, percent of patients (12 months after treatment): (53.10%) | palpitation score 4, number of patients (12 months after treatment): 78 | palpitation score 4, percent of patients (12 months after treatment): (5.56%) | palpitation score 6, number of patients (12 months after treatment): 4 | palpitation score 6, percent of patients (12 months after treatment): (0.29%) | short breath score 0, % of patients (12 months after treatment): (33.36%) | short breath score 0, number of patients (12 months after treatment): 468 | short breath score 3, % of patients (12 months after treatment): (58.45%) | short breath score 3, number of patients (12 months after treatment): 820 | short breath score 6, % of patients (12 months after treatment): (8.20%) | short breath score 6, number of patients (12 months after treatment): 115 | short breath score 9, % of patients (12 months after treatment): (0.00%) | short breath score 9, number of patients (12 months after treatment): 0 | spontaneous perspiration score 0, number of patients (12 months after treatment): 730 | spontaneous perspiration score 0, percent of patients (12 months after treatment): (52.03%) | spontaneous perspiration score 1, number of patients (12 months after treatment): 640 | spontaneous perspiration score 1, percent of patients (12 months after treatment): (45.62%) | spontaneous perspiration score 2, number of patients (12 months after treatment): 31 | spontaneous perspiration score 2, percent of patients (12 months after treatment): (2.21%) | spontaneous perspiration score 3, number of patients (12 months after treatment): 2 | spontaneous perspiration score 3, percent of patients (12 months after treatment): (0.14%) | total score of TCM symptom, Max (12 months after treatment): 28.00 | total score of TCM symptom, Md (12 months after treatment): 7.00 | total score of TCM symptom, Mean (12 months after treatment): 7.81 | total score of TCM symptom, Min (12 months after treatment): 0.00 | change of fatigue 0, % of patients [2]: (44.10%) | change of fatigue 0, number of patients [2]: 617 | change of fatigue 2, % of patients [2]: (38.03%) | change of fatigue 2, number of patients [2]: 532 | change of fatigue 4, % of patients [2]: (10.51%) | change of fatigue 4, number of patients [2]: 147 | change of fatigue 6, % of patients [2]: (1.64%) | change of fatigue 6, number of patients [2]: 23 | change of fatigue −2, % of patients [2]: (5.43%) | change of fatigue −2, number of patients [2]: 76 | change of fatigue −4, % of patients [2]: (0.29%) | change of fatigue −4, number of patients [2]: 4 | change of pale complexion 0, number of patients [2]: 967 | change of pale complexion 0, percent of patients [2]: (69.22%) | change of pale complexion 1, number of patients [2]: 393 | change of pale complexion 1, percent of patients [2]: (28.13%) | change of pale complexion −1, number of patients [2]: 37 | change of pale complexion −1, percent of patients [2]: (2.65%) | change of palpitation 0, number of patients [2]: 679 | change of palpitation 0, percent of patients [2]: (48.53%) | change of palpitation 1, number of patients [2]: 536 | change of palpitation 1, percent of patients [2]: (38.31%) | change of palpitation 2, number of patients [2]: 97 | change of palpitation 2, percent of patients [2]: (6.93%) | change of palpitation 3, number of patients [2]: 6 | change of palpitation 3, percent of patients [2]: (0.43%) | change of palpitation −1, number of patients [2]: 78 | change of palpitation −1, percent of patients [2]: (5.58%) | change of palpitation −2, number of patients [2]: 3 | change of palpitation −2, percent of patients [2]: (0.21%) | change of spontaneous perspiration 0, number of patients [2]: 647 | change of spontaneous perspiration 0, percent of patients [2]: (46.28%) | change of spontaneous perspiration 1, number of patients [2]: 483 | change of spontaneous perspiration 1, percent of patients [2]: (34.55%) | change of spontaneous perspiration 2, number of patients [2]: 128 | change of spontaneous perspiration 2, percent of patients [2]: (9.16%) | change of spontaneous perspiration 3, number of patients [2]: 29 | change of spontaneous perspiration 3, percent of patients [2]: (2.07%) | change of spontaneous perspiration −1, number of patients [2]: 103 | change of spontaneous perspiration −1, percent of patients [2]: (7.37%) | change of spontaneous perspiration −2, number of patients [2]: 8 | change of spontaneous perspiration −2, percent of patients [2]: (0.57%) | change of total score of TCM symptom, Max [2]: 18.00 | change of total score of TCM symptom, Md [2]: −5.00 | change of total score of TCM symptom, Mean [2]: −6.09 | change of total score of TCM symptom, Min [2]: −28.00 | distribution of total score of TCM symptom: Medium, number of patients (Baseline): 717 | distribution of total score of TCM symptom: Medium, percentage of patients (Baseline): (48.78%) | distribution of total score of TCM symptom: Mild, number of patients (Baseline): 701 | distribution of total score of TCM symptom: Mild, percentage of patients (Baseline): (47.69%) | distribution of total score of TCM symptom: Severe, number of patients (Baseline): 52 | distribution of total score of TCM symptom: Severe, percentage of patients (Baseline): (3.54%) | fatigue score 0, % of patients (Baseline): (18.22%) | fatigue score 0, number of patients (Baseline): 268 | fatigue score 2, % of patients (Baseline): (60.50%) | fatigue score 2, number of patients (Baseline): 890 | fatigue score 4, % of patients (Baseline): (17.74%) | fatigue score 4, number of patients (Baseline): 261 | fatigue score 6, % of patients (Baseline): (3.54%) | fatigue score 6, number of patients (Baseline): 52 | pale complexion score 0, number of patients (Baseline): 494 | pale complexion score 0, percent of patients (Baseline): (33.61%) | pale complexion score 1, number of patients (Baseline): 626 | pale complexion score 1, percent of patients (Baseline): (42.59%) | pale complexion score 2, number of patients (Baseline): 293 | pale complexion score 2, percent of patients (Baseline): (19.93%) | pale complexion score 3, number of patients (Baseline): 57
